The test system of this experiment is MHC-I expression by COLO 205 cells. Briefly: cells. In kind it is cell-based, human. The settings on record: for fold induction at 35 µM: Homo sapiens, COLO 205, 48 h, read-out: Induction Fold. Here is the method:
A panel of synthetic cannabinoids (Cayman Chemical, #9002891) was tested for MHC class I-inducing capability in COLO 205 cells as described above. COLO 205 cells were treated with the compounds at a concentration of 35 μM and evaluated for cell surface MHC class I expression after 48 hours. Cells were harvested, stained with MHC-I mAb W6/32 (Thermo Fisher). MHC-I expression was determined by flow cytometry.

Where [1] appears, read: MHC-I expression, COLO 205 cells, compounds at 35 μM, 48 hours, flow cytometry (W6/32).

Structures can show the parent of a compound that is named as a salt. Where two headings read alike, the source gives them in different places.

This is an account of results in US20210038559A1, “CANNABINOIDS AND DERIVATIVES FOR PROMOTING IMMUNOGENICITY OF TUMOR AND INFECTED CELLS” (priority 2018, published 2021).

As to `CN1CCCC[C@@H]1Cn1cc(C(=O)c2cc([N+](=O)[O-])ccc2I)c2ccccc21` [Example 23, (2-iodo-5-nitrophenyl)[1-[[(2R)-1-methyl-2-piperidinyl]methyl]-1H-indol-3-yl]methanone], the fold induction at 35 µM under setting [1] was 3.64.

Consider `O=C(Nc1cccc2cccnc12)c1nn(CCCCCF)c2ccccc12` [Example 166, 1-(5-fluoropentyl)-N-(quinolin-8-yl)-1H-indazole-3-carboxamide], for which, under setting [1], the fold induction at 35 µM was found to be 2.01. Same read-out and setting: the same measure for `CCCCCn1nc(C(=O)NC(C)(C(N)=O)C(C)C)c2ccccc21` (single isomer, unassigned) [Example 151, N-(1-amino-2,3-dimethyl-1-oxobutan-2-yl)-1-pentyl-1H-indazole-3-carboxamide]: 2.13. On the same count and under the same terms, the same measure for `CCCCCn1cc(C(=O)Cc2cccc(Cl)c2)c2ccccc21` [Example 86, 2-(3-chlorophenyl)-1-(1-pentyl-1H-indol-3-yl)-ethanone]: 2.51; for `CCN(CC)CCN1C(=O)CN=C(c2ccccc2F)c2cc(Cl)ccc21` [Example 250, 7-chloro-1-[2-(diethylamino)ethyl]-5-(2-fluorophenyl)-1,3-dihydro-2H-1,4-benzodiazepin-2-one]: 1.63. On the same count and under the same terms, the same measure for `CCCCCn1cc(C(=O)Oc2ccnc3ccccc23)c2ccccc21` [Example 10, quinolin-4-yl 1-pentyl-1H-indole-3-carboxylate]: 5.02. Consider `CCCCCCCC(C)(C)c1ccc([C@H]2CCC[C@H](O)C2)c(O)c1` (relative stereo) [Example 301, rel-2-[(1S,3S)-3-hydroxycyclohexyl)]-5-(2-methylnonan-2-yl)phenol], for which the “Induction Fold” value under setting [1] was 1.41 Fold. Take `CC(C)(C)C(NC(=O)c1cn(Cc2ccccc2)c2ccccc12)C(N)=O` (centres unmarked) [Example 186, N-(1-amino-3,3-dimethyl-1-oxobutan-2-yl)-1-benzyl-1H-indole-3-carboxamide]: the fold induction at 35 µM under setting [1] was 1.9.

As for `CCCCCC1=C/C(=C\c2cccc3ccccc23)c2ccccc21` [Example 303, 1-[(E)-(3-pentyl-1H-inden-1-ylidene)methyl]-naphthalene], the fold induction at 35 µM under setting [1] is 1.39. Consider `CCCCCn1cc(C(=O)c2cccc3cc(OC)ccc23)c2ccccc21` [Example 300, (6-methoxy-1-naphthalenyl)(1-pentyl-1H-indol-3-yl)-methanone], for which the fold induction at 35 µM under setting [1] came to 1.42.

With `CC1(C)C(C(=O)c2cn(CCN3CCOCC3)c3ccccc23)C1(C)C` [Example 147, [1-[2-(4-morpholinyl)ethyl]-1H-indol-3-yl](2,2,3,3-tetramethylcyclopropyl)-methanone], the fold induction at 35 µM under setting [1] was determined as 2.14. On the same count and under the same terms, the same measure for `COc1ccc(N2CCNCC2)cc1` [Example 347, 1-(4-Methoxyphenyl) piperazine (hydrochloride)]: 1.12; for `O=C(Nc1cccc2cccnc12)c1cn(CCCCCF)c2ccccc12` [Example 208, 1-(5-fluoropentyl)-N-(quinolin-8-yl)-1H-indole-3-carboxamide]: 1.84. The same measure, in the same setting: then `O=C(Oc1ccc2ccncc2c1)c1cn(CCCCCF)c2ccccc12` [Example 340, isoquinolin-7-yl 1-(5-fluoropentyl)-1H-indole-3-carboxylate], with 1.18; and `CCCCCn1cc(C(=O)N2CCN(C)CC2)c2ccccc21` [Example 273, (4-methylpiperazin-1-yl)(1-pentyl-1H-indol-3-yl)methanone, monohydrochloride], with 1.53. In the case of “(1-ethyl-1H-indol-3-yl)-1-naphthalenyl-methanone [Example 272]”, the “Induction Fold” value amounted to 1.53 Fold.

Consider `O=C(c1ccc2ccccc2c1)c1cn(CCN2CCOCC2)c2ccccc12` [Example 13, [1-[2-(4-morpholinyl)ethyl]-1H-indol-3-yl]-2-naphthalenyl-methanone], for which, under setting [1], the fold induction at 35 µM is 4.3. On the same count and under the same terms, the same measure for `CCCCCn1cc(C(=O)c2ccc(OC)cc2)c2ccccc21` [Example 129, (4-methoxyphenyl)(1-pentyl-1H-indol-3-yl)methanone]: 2.27; for `O=C(c1cn(CCCCCF)c2ccccc12)N1CCN(Cc2ccccc2)CC1` [Example 324, (4-benzylpiperazin-1-yl)(1-(5-fluoropentyl)-1H-indol-3-yl)methanone, monohydrochloride]: 1.26. On the same count and under the same terms, the same measure for `CCCCn1cc(C(=O)c2ccc3ccccc3c2)c2ccccc21` [Example 325, (1-butyl-1H-indol-3-yl)(naphthalen-2-yl)-methanone]: 1.26.

For the compound `O=C(Oc1cccc2ccccc12)c1nn(CCCCCF)c2ccccc12` [Example 167, naphthalen-1-yl 1-(5-fluoropentyl)-1H-indazole-3-carboxylate], the fold induction at 35 µM under setting [1] worked out at 2.01. Same read-out and setting: then `O=C(Oc1ccc2cnccc2c1)c1cn(CC2CCCCC2)c2ccccc12` [Example 327, isoquinolin-6-yl 1-(cyclohexylmethyl)-1H-indole-3-carboxylate], with 1.24. The same measure, in the same setting: then `CC(C)(NC(=O)c1nn(CCCCC#N)c2ccccc12)c1ccccc1` [Example 281, 1-(4-cyanobutyl)-N-(1-methyl-1-phenylethyl)-1H-indazole-3-carboxamide], with 1.48; and `CC(C)[C@H](NC(=O)c1cc(-c2ccc(F)cc2)n(CC2CCCCC2)n1)C(N)=O` [Example 344, (S)-N-(1-amino-3-methyl-1-oxobutan-2-yl)-1-(cyclohexylmethyl)-5-(4-fluorophenyl)-1H-pyrazole-3-carboxamide], with 1.14; and `C=C(C)[C@@H]1CCC(C)=C[C@H]1C1=C(O)C(=O)C(CCCCC)=CC1=O` [Example 377, 3-hydroxy-2-[(1R,6R)-3-methyl-6-(1-methylethenyl)-2-cyclohexen-1-yl]-5-pentyl-2,5-cyclohexadiene-1,4-dione], with 0.3. With `CCC(CC)n1cc(C(=O)c2ccc3ccccc3c2)c2ccccc21` [Example 201, [1-(1-ethylpropyl)-1H-indol-3-yl]-2-naphthalenyl-methanone], the fold induction at 35 µM under setting [1] was 1.87. With `COc1ccc(C(=O)c2c(C)n(CCN3CCOCC3)c3cc(I)ccc23)cc1` [Example 320, [6-iodo-2-methyl-1-[2-(4-morpholinyl)ethyl]-1H-indol-3-yl](4-methoxyphenyl)-methanone], the fold induction at 35 µM under setting [1] amounted to 1.3. For `O=C(c1cccc2ccccc12)c1cn(CCN2CCOCC2)c2ccccc12` [Example 57, [1-[2-(4-morpholinyl)ethyl]-1H-indol-3-yl]-1-naphthalenyl-methanone], the “Induction Fold” value is listed as 2.89 Fold. In the case of `O=C(Oc1ccc2ncccc2c1)c1cn(CCCCCF)c2ccccc12` [Example 30, quinolin-6-yl 1-(5-fluoropentyl)-1H-indole-3-carboxylate], the fold induction at 35 µM under setting [1] was found to be 3.4.

On to `COC(=O)[C@H](NC(=O)c1nn(CCCCCF)c2ccccc12)C(C)(C)C` [Example 179, N-[[1-(5-fluoropentyl)-1H-indazol-3-yl]carbonyl]-3-methyl-D-valine, methyl ester], for which, under setting [1], the “Induction Fold” value was found to be 1.94 Fold. Turning to `O=C(Nc1cccc2ccccc12)c1nn(CCCCCF)c2ccccc12` [Example 184, 1-(5-fluoropentyl)-N-1-naphthalenyl-1H-indazole-3-carboxamide], the fold induction at 35 µM under setting [1] amounted to 1.9. Consider `CC(C)[C@H](NC(=O)c1c2ccccc2nn1CC1CCCCC1)C(N)=O` [Example 343, (S)-N-(1-amino-3-methyl-1-oxobutan-2-yl)-2-(cyclohexylmethyl)-2H-indazole-3-carboxamide], for which, under setting [1], the fold induction at 35 µM is 1.14. Take `CCCC(NC(=O)c1nn(Cc2ccc(F)cc2)c2ccccc12)C(N)=O` (single isomer, unassigned) [Example 169, N-(1-amino-1-oxopentan-2-yl)-1-(4-fluorobenzyl)-1H-indazole-3-carboxamide]: under setting [1], the fold induction at 35 µM came out at 2.01. On the same count and under the same terms, then `O=C(c1ccccc1I)c1cn(CCCCCF)c2ccccc12` [Example 54, [1-(5-fluoropentyl)-1H-indol-3-yl](2-iodophenyl)-methanone], with 2.93; and `CCCCCn1cc(C(=O)c2ccccc2OC)c2ccccc21` [Example 20, (2-methoxyphenyl)(1-pentyl-1H-indol-3-yl)-methanone], with 3.98.

Consider `CC(C)[C@H](NC(=O)c1cn(CCCCCF)c2ccccc12)C(N)=O` [Example 312, N-[(1S)-1-(aminocarbonyl)-2-methylpropyl]-1-(5-fluoropentyl)-1H-indole-3-carboxamide], for which the fold induction at 35 µM under setting [1] was 1.35.

Take `CCCCCn1cc(C(=O)c2c(CC)ccc3ccccc23)c2ccccc21` [Example 89, (2-ethylnaphthalen-1-yl)(1-pentyl-1H-indol-3-yl)methanone]: the fold induction at 35 µM under setting [1] is 2.5. For `CCCCCCN1C(=O)/C(=N\NC(=O)c2ccccc2)c2ccccc21` [Example 125, (2Z)-2-(1-hexyl-1,2-dihydro-2-oxo-3H-indol-3-ylidene)hydrazide, benzoic acid], under setting [1], the “Induction Fold” value was found to be 2.29 Fold.

Turning to `O=C(NC12CC3CC(CC(C3)C1)C2)c1cn(CCCCCF)c2ccccc12` [Example 319, 1-(5-fluoropentyl)-N-tricyclo[3.3.1.13,7] dec-1-yl-1H-indole-3-carboxamide], the “Induction Fold” value under setting [1] is recorded as 1.31 Fold. Regarding `O=C(Oc1cncc2ccccc12)c1cn(CC2CCCCC2)c2ccccc12` [Example 124, isoquinolin-4-yl 1-(cyclohexylmethyl)-1H-indole-3-carboxylate], the fold induction at 35 µM under setting [1] came to 2.3. Regarding `CN1CCCCC1Cn1cc(C(=O)C2C(C)(C)C2(C)C)c2ccccc21` (centres unmarked) [Example 368, [1-[(1-methyl-2-piperidinyl)methyl]-1H-indol-3-yl](2,2,3,3-tetramethylcyclopropyl)-methanone], the fold induction at 35 µM stood at 0.85.
